Reference: patent US12553892B2, “Assays for antimicrobial activity and applications thereof” (PRESIDENT AND FELLOWS OF HARVARD COLLEGE, priority 2013, dated 2026)

Assays:
E. cloacae = assay: Antibiotic treatment of E. cloacae tracked by FcMBL ELLecSA detection of MAMPs; conditions: for susceptibility of E. cloacae to the antibiotic: as stated for the test pathogen; for treatment efficacy from increase or spike in ELLecSA signal over time: 24-hr time course, E. cloacae 10e8 CFU/ml, 1 mg/ml antibiotic
[1] = tested on: clinical isolate of E. coli; assay: Antibiotic treatment of clinical isolate of E. coli, MAMP detection by ELLecSA; type: cell-based; conditions: FIG. 16D strain
Method: FIGS. 16A-16E show lysing microbes by antibiotic treatment to increase MAMPs for FcMBL-coated bead capture and ELLecSA detection. In FIG. 16A, FcMBL coated beads were used to detect the presence of MAMPs from a clinical isolate of Enterobacter cloacae after 4 hour treatments of cefepime and meropenem. Detection of MAMPs was done by ELLecSA using rhMBL-hrp. In FIG. 16B, FcMBL coated beads were used to detect the presence of MAMPs from a clinical isolate of Salmonella typhimurium after 4 hour treatments of cefepime. Detection of MAMPs was done by ELLecSA using rhMBL-hrp. In FIG. 16C, FcMBL coated beads were used to detect the presence of MAMPs from a clinical isolate of E. coli after 4 hour treatment of cefepime and amikacin. Detection of MAMPs was done by ELLecSA using rhMBL-hrp. In FIG. 16D, FcMBL coated beads were used to detect the presence of MAMPs from a clinical isolate of E. coli after 4 hour treatment of cefepime and amikacin. Detection of MAMP's was done by ELLecSA using rhMBL-hrp. […]. Time course antibiotics were administered. Optimal MAMP detection occurred at 4 hours with 100 ug/mL cefepime.

E. coli ATCC 8739 = assay: In vivo antibiotic efficacy by ELLecSA in rats infected intraperitoneally; conditions: for ELLecSA levels, increase over baseline (no antibiotic): rats, 2e9 CFU i.p., antibiotic 100 μg/kg at 4 hours, terminal blood draw 8 hours after infection; for ELLecSA signal in treated group vs sham treatment: wistar rats, treatment four hours after infection, blood draw after another four hours
[2] = tested on: amp-C mutant Enterobacter cloacae; assay: Time course antibiotic treatment of amp-C mutant Enterobacter cloacae, MAMP detection by ELLecSA; type: cell-based; conditions: 100 μg/mL antibiotic

With `CC(=O)OCC1=C(C(=O)O)N2C(=O)[C@@H](NC(=O)Cc3cccs3)[C@H]2SC1` [Cefalotin] as the compound, how does the “susceptibility of E. cloacae to the antibiotic” value (E. cloacae) read?
Its value is “naturally resistant”.

Which “susceptibility of the E. coli strain” value [1] does the source give for `NCC[C@H](O)C(=O)N[C@@H]1C[C@H](N)[C@@H](O[C@H]2O[C@H](CN)[C@@H](O)[C@H](O)[C@H]2O)[C@H](O)[C@H]1O[C@H]1O[C@H](CO)[C@@H](O)[C@H](N)[C@H]1O` [amikacin] here?
The value was “sensitive”.

Which results are given for `Cc1nnc(SCC2=C(C(=O)O)N3C(=O)[C@@H](NC(=O)Cn4cnnn4)[C@H]3SC2)s1` [cefazolin]?
treatment efficacy from increase or spike in ELLecSA signal over time (E. cloacae): ineffective; susceptibility of E. cloacae to the antibiotic (E. cloacae): resistant

With `CO/N=C(\C(=O)N[C@@H]1C(=O)N2C(C(=O)[O-])=C(C[N+]3(C)CCCC3)CS[C@H]12)c1csc(N)n1` [cefepime] as the compound, how does the “susceptibility of the E. coli strain” value [1] read?
Its value is “intermediate susceptibility”.

And the “ELLecSA levels, increase over baseline (no antibiotic)” value (E. coli ATCC 8739)?
Its value is “six”.

What about the “ELLecSA signal in treated group vs sham treatment” value (E. coli ATCC 8739) of the same compound?
Its value is “significant increase”.

`CC(C)(O/N=C(\C(=O)N[C@@H]1C(=O)N2C(C(=O)[O-])=C(C[n+]3ccccc3)CS[C@H]12)c1csc(N)n1)C(=O)O` [ceftazidime] was tested. Which “susceptibility of amp-C mutant E. cloacae” value [2] did it give?
The value was “resistant”.

`CO/N=C(\C(=O)N[C@@H]1C(=O)N2C(C(=O)O)=C(CSc3nc(=O)c(=O)[nH]n3C)CS[C@H]12)c1csc(N)n1` [ceftriaxone] was tested. Which “treatment efficacy from increase or spike in ELLecSA signal over time” value (E. cloacae) did it give?
Its value is “effective”.

And the “time to MAMP release after addition of the active antibiotic” value (E. cloacae; about 5e7 CFU Enterobacter cloacae)?
The value was no more than 30 min.

What about the “susceptibility of E. cloacae to the antibiotic” value (E. cloacae) of the same compound?
Its value is “susceptible”.

With `C[C@@H](O)[C@H]1C(=O)N2C(C(=O)O)=C(S[C@@H]3CN[C@H](C(=O)N(C)C)C3)[C@H](C)[C@H]12` [meropenem] as the compound, how does the “ELLecSA levels, increase over baseline (no antibiotic)” value (E. coli ATCC 8739) read?
The value was 2 fold.

And the “ELLecSA signal in treated group vs sham treatment” value (E. coli ATCC 8739)?
The value was “significant increase”.
